Assay results as given in PMC5972519 (Journal of pharmaceutical and biomedical analysis, 2016).

Legend:
[1] = Plasma pharmacokinetics of; format: in vivo, Wistar rat; settings: for Plasma concentration at 30 min after ip administration: Acute Arm, single ip 40 mg/kg (R,S)-Ket; for Plasma concentration Ratio (C/A): Chronic Arm / Acute Arm; for Cmax / t1/2 / concentration at 30 min / concentration at 40 min / Tmax: plasma; for concentration at 30 min / concentration at 40 min: male, Wistar, rat, ip; for t1/2 Ratio (A/C): Acute Arm t1/2 / Chronic Arm t1/2 (fold reduction by 14-day dosing)
[2] = Partitioning between whole blood and plasma; format: in vitro ADME; settings: mouse whole blood, spiked 10, 1 and 0.1 μM, 30 min at 37°C
[3] = Acute: single ip 40 mg/kg (R,S)-Ket
[4] = Sub-chronic: Day 14 of ip 40 mg/kg (R,S)-Ket once per day for 14 days
[5] = Acute: single ip 40 mg/kg (R,S)-Ket, 40 mg/kg

SMILES: NC1(c2ccccc2Cl)CCCC(O)C1=O [(2S,6R;2R,6S)-HNK, (2S,6R;2R,6S)-hydroxynorketamine]
- Plasma concentration at 30 min after ip administration [1]: 172 ng/mL
- Plasma concentration at 10 min post-dosing [1, 3]: 252 ± 81 ng/mL
- Plasma concentration between 5 min and 60 min post-administration [1, 3]: > 50 ng/mL
- Plasma concentration Ratio (C/A) ([1]; 30 min post dosing): 4.5
- Plasma concentration Ratio (C/A) ([1]; 30 min post dosing, listed as (2S,6R,2R,6S)-HNK): 4.53
- Cmax [1, 4]: 2101 ng/mL
- t1/2 [1, 4]: 1.3 h

SMILES: NC1(c2ccccc2Cl)CC(O)CCC1=O [(2S,4R;2R,4S)-HNK, (2S,4R;2R,4S)-hydroxynorketamine]
- Plasma concentration at 30 min after ip administration [1]: 218 ng/mL
- Plasma concentration between 5 min and 60 min post-administration [1, 3]: > 50 ng/mL
- Plasma concentration at 10 min post-dosing [1, 5]: 257 ± 195 ng/mL
- Plasma concentration Ratio (C/A) ([1]; 30 min post dosing): 1.7
- Plasma concentration Ratio (C/A) ([1]; 30 min post dosing, listed as (2S,4R,2R,4S)-HNK): 1.73
- t1/2 [1, 4]: 5.0 h

SMILES: NC1(c2ccccc2Cl)CCC=CC1=O (racemic) [(R,S)-DHNK, (R,S)-dehydronorketamie]
- Plasma concentration at any sampling time ([1]; after ip 40 mg/kg (R,S)-Ket, both arms): ≤ 10 ng/mL
- Share of compound found in the plasma fraction after incubation with whole blood [2]: < 20%

SMILES: CNC1(c2ccccc2Cl)CCCCC1=O (racemic) [(R,S)-Ket, (R,S)-Ketamine, reference compound]
- Plasma concentration between 5 min and 60 min post-administration [1, 3]: > 1,000 ng/ml
- concentration at 30 min ([1]; 40 mg/kg): 2780 ng/mL
- concentration at 40 min ([1]; 40 mg/kg): 2600 ng/mL
- Share of compound found in the plasma fraction after incubation with whole blood [2]: > 90%

SMILES: N[C@@]1(c2ccccc2Cl)CCC[C@@H](O)C1=O [(2S,6S;2R,6R)-HNK, (2S,6S;2R,6R)-hydroxynorketamine]
- t1/2 Ratio (A/C) [1]: 1.2
- Plasma concentration at 30 min after ip administration [1]: 4327 ng/mL
- Plasma concentration between 5 min and 60 min post-administration [1, 3]: > 1,000 ng/ml
- Cmax [1, 3]: 4641 ± 2020 ng/mL
- Tmax [1, 3]: 0.61 ± 0.35 h
- t1/2 ([1]; Acute: single ip 40 mg/kg (R,S)-Ket, male Wistar rats): 13.2 ± 3.7 h
- Plasma concentration Ratio (C/A) ([1]; 30 min post dosing): 1.4
- Plasma concentration Ratio (C/A) ([1]; 30 min post dosing, listed as (2S,6S,2R,6R)-HNK): 1.42
- Plasma concentration at 72 hr post-administration ([1]; Sub-chronic, Day 14 dose): 15 ± 7 ng/mL
- Cmax [1, 4]: 6491 ± 3008 ng/mL
- Tmax [1, 4]: 0.78 ± 0.19 h
- t1/2 [1, 4]: 11.1 ± 1.8 h

SMILES: NC1(c2ccccc2Cl)CCC(O)CC1=O [(2S,5S;2R,5R)-HNK]
- Plasma concentration at 10 min post-dosing [1, 3]: 181 ± 141 ng/mL
- Plasma concentration between 5 min and 60 min post-administration [1, 3]: > 50 ng/mL

SMILES: NC1(c2ccccc2Cl)CCCCC1=O (racemic) [(R,S)-norKet, (R,S)-norketamine]
- Fold reduction of relative plasma concentration by subchronic dosing ([1]; 30 min post dosing, subchronic versus acute): 1.6 fold
- t1/2 Ratio (A/C) [1]: 1.4
- Plasma concentration between 5 min and 60 min post-administration [1, 3]: > 1,000 ng/ml
- Plasma concentration Ratio (C/A) ([1]; 30 min post dosing): 0.62
- concentration at 30 min ([1]; 40 mg/kg): 2130 ng/mL
- concentration at 40 min ([1]; 40 mg/kg): 1340 ng/mL
- Share of compound found in the plasma fraction after incubation with whole blood [2]: > 90%

SMILES: NC1(c2ccccc2Cl)CC(O)CCC1=O [(2S,4S;2R,4R)-HNK]
- Plasma concentration between 5 min and 60 min post-administration [1, 3]: > 50 ng/mL
- Plasma concentration at 10 min post-dosing [1, 5]: 196 ± 132 ng/mL
